Data on 14 molecules can be found in patent US8420144B2, “Kokumi-imparting agent, method of using, and compositions containing same” (Ajinomoto Co., Inc., priority 2005, dated 2013).

Experiment [1] is described as follows: Quantitative sensory evaluation test: kokumi-imparting activity of peptides combined with known calcium receptor activators or additives. Format: in vivo, human. The conditions noted are these: alone; for Intensity of kokumi: Aftertaste / Intensity of kokumi: First and middle taste: n=12, 0 control, 3 intense, 6 extremely intense. The method, then:
The intensity of the kokumi-imparting activity of each peptide having confirmed calcium receptor activation activity and a known calcium receptor activator used in combination was measured by a quantitative sensory evaluation test, performed as follows: Samples of γ-Glu-Cys-Gly (glutathione) or γ-Glu-Val-Gly (0.0001 to 1 g/dl), or these samples combined with a calcium receptor activator such as calcium lactate, protamine or polylysine, or GABA (addition concentration: 0.0001 to 1 g/dl) were added to distilled water containing sodium glutamate (0.05 g/dl), inosine monophosphate (0.05 g/dl), and sodium chloride (0.5 g/dl), and the intensity of the kokumi-imparting activity was measured. Sample solutions that became acidic after dissolution of the samples were adjusted to pH 6.8 to 7.2 with NaOH before use. Sensory evaluation scores were used to evaluate as follows: 0 points for the control sample, 3 points for intense activity (as intensity of 0.05 g/dl γ-Glu-Cys-Gly and 0.005 g/dl γ-Glu-Val-Gly), and 6 points for extremely intense activity (as twice intensity of 0.05 g/dl γ-Glu-Cys-Gly and 0.005 g/dl γ-Glu-Val-Gly), and the test was performed with n=12.

The target in another experiment is T1, human CaSR (Homo sapiens, UniProt P41180).
T1 construct: expressed in transfected cells; host or cells: HEK 293 cells, transient transfection of a CMV-promoter expression vector
T1 sequence (P41180 20-1078): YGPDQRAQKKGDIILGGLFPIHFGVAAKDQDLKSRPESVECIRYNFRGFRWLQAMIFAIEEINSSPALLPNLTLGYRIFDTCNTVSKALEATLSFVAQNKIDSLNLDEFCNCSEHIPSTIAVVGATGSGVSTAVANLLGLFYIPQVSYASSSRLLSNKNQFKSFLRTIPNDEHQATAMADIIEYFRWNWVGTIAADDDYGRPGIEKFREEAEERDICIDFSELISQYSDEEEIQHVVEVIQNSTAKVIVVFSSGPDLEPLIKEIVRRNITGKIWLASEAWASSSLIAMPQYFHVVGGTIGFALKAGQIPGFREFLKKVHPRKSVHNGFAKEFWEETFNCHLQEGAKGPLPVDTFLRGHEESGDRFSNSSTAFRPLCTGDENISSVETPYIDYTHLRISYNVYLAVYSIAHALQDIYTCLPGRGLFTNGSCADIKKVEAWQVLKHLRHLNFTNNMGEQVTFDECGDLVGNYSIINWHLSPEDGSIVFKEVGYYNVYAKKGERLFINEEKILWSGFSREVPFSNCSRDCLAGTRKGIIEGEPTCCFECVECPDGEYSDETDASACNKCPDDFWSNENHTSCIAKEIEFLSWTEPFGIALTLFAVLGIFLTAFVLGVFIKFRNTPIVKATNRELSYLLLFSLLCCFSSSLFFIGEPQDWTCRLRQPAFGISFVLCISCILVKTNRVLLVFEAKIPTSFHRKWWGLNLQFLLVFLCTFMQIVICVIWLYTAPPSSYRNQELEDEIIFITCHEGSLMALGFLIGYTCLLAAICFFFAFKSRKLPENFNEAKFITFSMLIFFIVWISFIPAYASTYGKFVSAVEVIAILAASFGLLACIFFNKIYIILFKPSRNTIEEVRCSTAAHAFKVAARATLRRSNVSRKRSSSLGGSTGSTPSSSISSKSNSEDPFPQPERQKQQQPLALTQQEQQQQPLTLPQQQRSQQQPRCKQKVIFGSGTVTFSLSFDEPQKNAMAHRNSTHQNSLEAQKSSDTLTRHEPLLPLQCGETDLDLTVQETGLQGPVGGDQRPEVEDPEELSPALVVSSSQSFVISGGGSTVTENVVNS
The experiment in a line: Calcium receptor (CaSR) activation activity: calcium imaging in HEK 293 cells expressing human CaSR. Format: cell-based. The conditions noted are these: concentration giving 50% of the maximal activity; single values n = 1, others n = 2 or 3. The method, then: Calcium receptor (CaSR) activation activity of peptides obtained in Examples 2, 3, and 5-12 were measured as follows. A cDNA of human CaSR obtained in Example 1 of WO2007/055393A1 was inserted into an expression vector for an animal cell having a CMV promoter, and the cDNA in the vector was introduced into HEK 293 cells, which had multiplied to 70% of the maximal cell density, using FuGINE6 (Roche Ltd.). After culturing the cells for 4 to 48 hours, 0.6-1.0×10^5 of cells/well were disseminated into a 96-well plate, subsequently, the cells were cultured for one day, and then stained using Calcium 3 Assay Kit. The presence or absence of a calcium receptor activation activity of each peptide was confirmed by a calcium imaging method using FLEXSTATION (Molecular Devices Inc., instruction manual). Furthermore, the concentration of each peptide giving 50% of the maximal activity (EC50) was calculated using a dose characteristic curve.

Numbered stars: 1 amine (or outer) side, 2 acyl side, 3 side chain; on linkers, the order of the positions; unused ones are H or OH. Square brackets hold non-standard residues; d marks the D form. Peptide text beside a SMILES is read from it. γGlu = O=C(O)[C@H](CCC(=O)[*:2])N[*:1]; Tle = CC(C)(C)[C@H](N)C(=O)O

For the molecule `CC(O)C(=O)[O-].CC(O)C(=O)[O-].[Ca+2]` (stereo not drawn) [Calcium lactate], in experiment [1] (0.25 g/dl), the Evaluation remarks entry was “Thickness”; the “Intensity of kokumi: Aftertaste” value is 0.5 points; the “Intensity of kokumi: First and middle taste” value stood at 0.5 points.

Protamine: in experiment [1] (0.005 g/dl), the “Intensity of kokumi: Aftertaste” value is given as 1.0 points; the “Intensity of kokumi: First and middle taste” value was 1.5 points.

What is called EC50 is the concentration needed to bring the measured effect to its halfway point. Take `CC(C)(NC(=O)CC[C@H](N)C(=O)O)C(=O)NCC(=O)O` [γ-Glu-Aib-Gly]: the EC50 on human CaSR lay in the range of 349 to 1170 nM.

Regarding `C[C@H](OC(=O)[C@@H](NC(=O)CC[C@H](N)C(=O)O)C(C)(C)C)C(=O)O` [γ-Glu-t-Leu-LacA], the EC50 on human CaSR worked out at 38 nM.

`CC(C)(C)[C@H](NC(=O)CC[C@H](N)C(=O)O)C(=O)NCC(=O)O` [γ-Glu-t-Leu-Gly] (γGlu-[Tle]-Gly-OH): at human CaSR, the EC50 lay in the range of 43 to 77 nM.

In the case of Polylysine, in experiment [1] (0.001 g/dl), the Evaluation remarks result was “Thickness”; the “Intensity of kokumi: Aftertaste” value turned out to be 0.5 points; the “Intensity of kokumi: First and middle taste” value came to 0.5 points.

Take `CC(C)(S)[C@H](NC(=O)CC[C@H](N)C(=O)O)C(=O)NCC(=O)O` [γ-Glu-Pen-Gly]: the EC50 on human CaSR fell in the range of 159 to 233 nM.

With `CC(C)(C)[C@H](NC(=O)CC[C@H](N)C(=O)O)C(=O)OCC(=O)O` [γ-Glu-t-Leu-GlyA], at human CaSR, the EC50 worked out at 50 nM.

On to `NCCCC(=O)O` [GABA], for which, in experiment [1] (0.025 g/dl), the Evaluation remarks entry is recorded as “Thickness”; the “Intensity of kokumi: Aftertaste” value worked out at 0.5 points; the “Intensity of kokumi: First and middle taste” value is listed as 0.5 points.

As for `CC[C@H](NC(=O)CC[C@H](N)C(=O)O)C(=O)O[C@@H](C)C(=O)O` [γ-Glu-Abu-LacA], the EC50 on human CaSR turned out to be 102 nM.

Turning to `CC(C)[C@H](NC(=O)CC[C@H](N)C(=O)O)C(=O)O[C@@H](C)C(=O)O` [γ-Glu-Val-LacA], the EC50 on human CaSR amounted to 57 nM.

Consider `CC[C@H](NC(=O)CC[C@H](N)C(=O)O)C(=O)OCC(=O)O` [γ-Glu-Abu-GlyA], for which the EC50 at human CaSR lay within 65 to 79 nM.

For `CC(C)[C@H](NC(=O)CC[C@H](N)C(=O)O)C(=O)OCC(=O)O` [γ-Glu-Val-GlyA], on human CaSR, the EC50 was 140 nM.

Regarding `N[C@@H](CCC(=O)NC1(C(=O)NCC(=O)O)CCCC1)C(=O)O` [γ-Glu-Cle-Gly], the EC50 on human CaSR lay in the range of 500 to 1500 nM.
